This is an account of results in patent publication US11820792B2, “Cancer treatment” (Imperial College Innovations Limited, priority 2017, dated 2023).

One data set concerns UW228 cells. As to the kind of experiment: TNFα and cisplatin combination, sulphorodamine B viability. It is filed as cell-based, human. The conditions noted are these: stably transduced UW228, 1 μM and 5 μM cisplatin. On the procedure:
Cell viability was measured at different time points using sulphorodamine B assay. Stably transduced UW228 were treated with 1 μM and 5 μM cisplatin chemotherapy 48 hrs after seeding the cells. Data are represented as mean±SEM.***P≤0.001.

A further data set has as its system DIPG. To be noted: 2 children, both died after treatment; cited from earlier work.
Data set [1] has as its system recurrent human malignant glioma. To be noted: cited from earlier work.
For data set [2] the following is noted: systemic administration, clinical trials; cited from earlier work.

With `N.N.[Cl][Pt][Cl]` [cisplatin], the “effect of combination on tmTNFα cytokine gene therapy (cell viability)” value with UW228 cells is reported as “increases”.
For the compound `CC[C@@]1(O)C(=O)OCc2c1cc1n(c2=O)Cc2cc3c(CN(C)C)c(O)ccc3nc2-1` [topotecan], the tumour response entry in the data set on DIPG is given as “reduction in tumour size”.
As for “IL-4: Interleukin-4 protein injected intratumorally by convection enhanced delivery”, the “neurotoxicity to normal brain” value in data set [1] (histology, any patient) was “No histological evidence of neurotoxicity”. Also, in data set [1] (intratumoral, CED), the “patients showing glioma necrosis” value is on record as “Six of nine”. Also, the “disease free time after the procedure” value in data set [1] (one patient) is above 18 months. The systemic toxicity entry in data set [1] (treated patients) is “no drug-related systemic toxicity”.
Regarding “rhIL-15: Recombinant human IL-15 cytokine given systemically in clinical trials”, the plasma half-life in data set [2] is listed as below 1 h.
